Source: patent publication US20060210614A1, “Method of treatment of a metabolic disease using intranasal administration of exendin peptide” (Nastech Pharmaceutical Company Inc., priority 2003, published 2006)
Like-named read-outs stand apart in the source and are kept apart here.

Tests used:
[1] = aqueous solution at physiologic pH; cited from earlier work
[2] = system: normal, human-derived tracheal/bronchial epithelial cells (EpiAirway™ Tissue Model); details: exenatide formulation containing the excipient; LDH and MTT
Description: The amount of cell death was assayed by measuring the loss of lactate dehydrogenase (LDH) from the cells using a CytoTox 96 Cytoxicity Assay Kit (Promega Corp., Madison, Wis.). Fresh, cell-free culture medium was used as a blank. 50 μl harvested media (stored at 4° C.) was loaded in a 96-well plate. Substrate Solution (50 μl) was added to each well and the plates were incubated for thirty (30) minutes at ambient temperature in the dark. Following incubation, 50 μl of Stop Solution was added to each well and the reaction was monitored at A490 using an optical density plate reader. Media alone applied to the apical side served as a negative control while triton X served as the positive control for the LDH assay.
The optical density of the samples was measured at A550 on an optical density plate reader (Molecular Devices, Palo Alto, Calif.). Media alone applied to the apical side served as a […] for the MTT assay.
A second round of studies, series B, systematically screened several excipients for their potential to enhance exenatide permeation to a greater degree than the Me-β-CD, DDPC, EDTA, and gelatin combinations. […] As with series A formulations, each formulation was evaluated for exenatide permeation, ability to reduce TER while not adversely affecting cell viability, and formulation physical stability.

[3] = Physical stability (clarity, absorbance at 630 nm) after storage at 5° C.
Description: In vitro optimization of the exenatide formulation included a preservatives screen. Physical stability after storage at 5° C. was measured for all formulations tested in vitro. Exenatide formulations were placed in 1 cc glass vials and closed with trifoil lined caps and stored at 5° C. for at least two weeks. Physical stability was monitored by measuring clarity. Clarity of a formulation was determined by measuring absorbance at 630 nm, using the μQuant optical density plate reader for each formulation at days 0, 7, and 14. A 200 μL volume from each vial was placed in a 96-well plate and read against a background of water.
Varying concentrations of sodium benzoate (NaBenz) and benzalkonium chloride (BAK), were screened for their effect on physical stability of the three formulations used in in vivo studies. Sodium benzoate was added at […], while BAK was tested at 0.2, 1.0, 2.0, and 4.0 mg/mL. To prepare the samples, varying amounts of stock solutions of the two preservatives were added to the three prepared formulations dosed in the PK study. […] The resulting formulations were stored at 5° C. for 5.5 weeks. Physical stability was monitored by measuring the absorbance of the solution at 630 nm.
Sodium benzoate was added at concentrations of 1.0 to 5.0 mg/mL, while BAK was tested at 0.05, 0.075, and 0.1 mg/mL. To prepare the samples, varying amounts of stock solutions of the two preservatives were added to the formulations prepared in the PK study and the pH was adjusted to 4.5 with HCl as necessary. The resulting formulations were stored at 5° C. for 4 weeks. Physical stability was monitored by measuring the absorbance of the solution at 630 nm.

[4] = system: epithelial tissue barrier (EpiAirway™ Tissue Model); experiment: In vitro permeation of Fluorescein-Exendin-4 across the cellular barrier; details: for Fold increase in exenatide permeation over AKL-225-126-2: one hour incubation, full dose volume
Text: A standard curve was generated over the relevant quantitation range. […] Initial studies focused on optimizing the concentrations of Me-β-CD, DDPC, EDTA and gelatin to enhance exenatide permeation across an epithelial tissue layer.

[5] = system: aminopeptidases; details: cited from earlier work
[6] = anesthetized rats, cited from earlier work
[7] = system: normal, human-derived tracheal/bronchial epithelial cells (EpiAirway™ Tissue Model); experiment: Transepithelial Electrical Resistance (TER) measurements using an in vitro nasal epithelial model; format: cell-based; details: 60 minute exposure
Text: The cell line MatTek Corp. (Ashland, Mass.) was used as the source of normal, human-derived tracheal/bronchial epithelial cells (EpiAirway™ Tissue Model). The cells are highly differentiated and retain all the properties of respiratory epithelial tissue. The cells were provided as inserts grown to confluence on Millipore Milicell-CM filters comprised of transparent hydrophilic Teflon (PTFE). […] TER measurements were accomplished using the Endohm-12 Tissue Resistance Measurement Chamber connected to the EVOM Epithelial Voltohmmeter (World Precision Instruments, Sarasota, Fla.) with the electrode leads. The electrodes and a tissue culture blank insert were equilibrated for at least twenty (20) minutes in phosphate buffered solution with the power off prior to checking calibration. The background resistance was measured with 1.5 mL media in the Endohm tissue chamber and 300 μL media in a blank Millicell-CM insert. […] The background resistance of the blank insert was 5-12 ohms.
TER was measured before and after the sixty (60) minute incubation. […] After the 60 minute incubation with test samples, 200 μL of fresh media was gently added to the apical surface of each test sample insert and final TER was measured for each insert. […] Resistance is expressed as follows: (resistance measured−blank)×0.6 cm^2.

[8] = 5° C. (refrigerated), at least two weeks, absorbance at 630 nm

Compound	Toxicity / cell viability (in words) [2]	Physical stability / clarity (in words) [3, 8]	also measured
CCN(CC)/[N+]([O-])=N/O.CCNCC [diethylamine/NO]			Rate (time) of NO release [1]: < 3 min
CCCCCCCCO[C@@H]1O[C@H](CO)[C@H](O)[C@H](O)[C@H]1O [galactopyranoside, n-Octyl-β-D-galactopyranoside]	toxic at 10 mg/mL		
CCCCCCCCCC(=O)[O-].[Na+] [sodium caprate]	low cell viability at 50 mM alone	physical instability in the absence of Me-β-CD	
CCCCCCCC(=O)[O-].[Na+] [sodium caprylate]	toxic at 20 mM with Me-β-CD and EDTA	physical instability in the absence of Me-β-CD	
CCCCCCCC/C=C\CCCCCCCC(=O)OCCOCC(OCCO)C1OCC(OCCO)C1OCCO (stereo not drawn) [Tween-80]			Exenatide permeation across the tissue barrier (in words) ([4]; human, 1 h): failed to enhance exenatide permeation to the same extent as formulation AKL-225-126-2
C[C@H](CCC(=O)NCC(=O)[O-])[C@H]1CC[C@H]2[C@@H]3[C@H](O)C[C@@H]4C[C@H](O)CC[C@]4(C)[C@H]3C[C@H](O)[C@]12C.[Na+] [Sodium glycocholate, sodium glycocholate]		physically instable at high concentrations	
O=C([O-])c1ccccc1.[Na+] [sodium benzoate]		2 mg/mL of more sodium benzoate became turbid within 14 days at 5 °C	
CC(C)CC(N)B(O)O (stereo not drawn) [boro-leucine]			Times more effective in enzyme inhibition than bestatin [5]: more than 100 times; Times more effective in enzyme inhibition than puromycin [5]: more than 1000 times
O=C(O)CN(CCN(CC(=O)O)CC(=O)O)CC(=O)O [EDTA, ethylene diamine tetraacetic acid]	at 10 mg/mL EDTA, cell viability began to decrease		
human growth hormone: human growth hormone given nasally to anesthetized rats, without and with N-acetyl-L-cysteine			Nasal bioavailability of human growth hormone ([6]; with N-acetyl-L-cysteine (ACS)): 12.2%; Nasal bioavailability of human growth hormone ([6]; without N-acetyl-L-cysteine): 7.5%
Dodecanoylsucrose	toxic at 10 mg/mL		Fold increase in exenatide permeation over AKL-225-126-2 [4]: not more than 1.5 fold
dimethyl-β-cyclodextrin [DMe-β-CD]	more toxic to the cells than Me-β-CD		Fold increase in exenatide permeation over AKL-225-126-2 [4]: 1.5 fold
hydroxypropyl-β-cyclodextrin [HP-β-CD]			Exenatide permeation across the tissue barrier (in words) ([4]; excipient screen, compared with AKL-225-126-2 or control without enhancers): did not increase permeation significantly
CCCCCCCC/C=C\CCCCCCCC(=O)O [oleic acid]	3 mg/mL oleic acid resulted in lowered cell viability		
CCCCCCCCCCCCC[N+](C)(C)Cc1ccccc1 [benzalkonium chloride (BAK), benzalkonium chloride]	decreasing cell viability with increasing BAK concentration		Physical stability / clarity (in words) [3]: remained physically stable for two weeks at 5 °C
NCCN(CCN)/[N+]([O-])=N/O [diethylenetriamine/NO]			Rate (time) of NO release [1]: approximately 20 hours
CCCCCCCCO[C@@H]1O[C@H](CO)[C@@H](O[C@H]2O[C@H](CO)[C@@H](O)[C@H](O)[C@H]2O)[C@H](O)[C@H]1O [n-octyl-β-D-maltopyranoside, n-Octyl-β-D-maltopyranoside]			Fold increase in exenatide permeation over AKL-225-126-2 [4]: not more than 1.5 fold
CCCCCCCCCCCCCCCC(=O)OC(CC(=O)[O-])C[N+](C)(C)C (racemic) [Palmitoyl-DL-carnitine, palmitoyl-DL-carnitine]	toxic at high concentrations	physically instable without Me-β-CD	
OC[C@H]1O[C@@H]2O[C@H]3[C@H](O)[C@@H](O)[C@@H](O[C@H]4[C@H](O)[C@@H](O)[C@@H](O[C@H]5[C@H](O)[C@@H](O)[C@@H](O[C@H]6[C@H](O)[C@@H](O)[C@@H](O[C@H]7[C@H](O)[C@@H](O)[C@@H](O[C@H]8[C@H](O)[C@@H](O)[C@@H](O[C@H]1[C@H](O)[C@H]2O)O[C@@H]8CO)O[C@@H]7CO)O[C@@H]6CO)O[C@@H]5CO)O[C@@H]4CO)O[C@@H]3CO [β-cyclodextrin]		became turbid at refrigerated conditions	
triton X			Effect on TER (in words) [7]: lowest possible TER
CCCCCCCCC(=O)OC[C@H](COP(=O)([O-])OCC[N+](C)(C)C)OC(=O)CCCCCCCC [dinonanoyl glycero phosphatidylcholine, Di Nonanoyl Glycero Phosphatidylcholine (9:0)]		becoming turbid in less than two weeks at refrigerated conditions	
CCCCCCCCO[C@H]1O[C@H](CO)[C@@H](O)[C@H](O)[C@H]1O [Octyl-α-glucopyranoside]			Fold increase in exenatide permeation over AKL-225-126-2 [4]: not more than 1.5 fold
